From BigSolDB 2.1 come the findings set out here.

For the data set the following is noted: in water.

Each structure is given as a SMILES string.

The solubility (mole fraction) is the moles of solute divided by all moles in the saturated solution.

For the molecule `O=S(=O)([O-])c1ccc2ccc(S(=O)(=O)[O-])cc2c1.[Na+].[Na+]`, the solubility (mole fraction) was 0.0128 (283.15 K); 0.014 (288.15 K); 0.0159 (293.15 K); 0.0189 (298.15 K); 0.0224 (303.15 K); 0.0268 (308.15 K). Besides, the solubility (mole fraction) by setting is: (313.15 K) 0.0323; (318.15 K) 0.0383; (323.15 K) 0.0473; (328.15 K) 0.0584; (333.15 K) 0.075.
Turning to `O=S(=O)([O-])c1ccc2cc(S(=O)(=O)[O-])ccc2c1.[Na+].[Na+]`, the solubility (mole fraction) by setting is: (283.15 K) 0.00323; (288.15 K) 0.00343; (293.15 K) 0.00366; (298.15 K) 0.00402; (303.15 K) 0.00437; (308.15 K) 0.00478. Besides, the solubility (mole fraction) came out at 0.00523 (313.15 K); 0.00563 (318.15 K); 0.00611 (323.15 K); 0.00657 (328.15 K); 0.0072 (333.15 K).
